Measurements reported in patent publication US9302991B2, “Arylamide derivatives as TTX-S blockers” (RaQualia Pharma Inc., priority 2010, dated 2016).
Values joined by “and” are separate entries in the source; they are usually repeats but may differ in a detail not shown here. Identical values can stand only once.

What was measured:
Format in all cases: cell-based
human Nav1.3 (hSCN3A) = molecular target: T1, human Nav1.3 (hSCN3A) (Homo sapiens, UniProt Q9NY46); test: Electrophysiology assay for Navs, whole cell patch clamp, Nav1.3; settings: Kinact, dissociation constant for the inactivated state, read-out: activities (Ki) against Nav1.3
T1 construct: expressed in transfected cells; host or cells: HEK293
T1 sequence (Q9NY46 whole entry): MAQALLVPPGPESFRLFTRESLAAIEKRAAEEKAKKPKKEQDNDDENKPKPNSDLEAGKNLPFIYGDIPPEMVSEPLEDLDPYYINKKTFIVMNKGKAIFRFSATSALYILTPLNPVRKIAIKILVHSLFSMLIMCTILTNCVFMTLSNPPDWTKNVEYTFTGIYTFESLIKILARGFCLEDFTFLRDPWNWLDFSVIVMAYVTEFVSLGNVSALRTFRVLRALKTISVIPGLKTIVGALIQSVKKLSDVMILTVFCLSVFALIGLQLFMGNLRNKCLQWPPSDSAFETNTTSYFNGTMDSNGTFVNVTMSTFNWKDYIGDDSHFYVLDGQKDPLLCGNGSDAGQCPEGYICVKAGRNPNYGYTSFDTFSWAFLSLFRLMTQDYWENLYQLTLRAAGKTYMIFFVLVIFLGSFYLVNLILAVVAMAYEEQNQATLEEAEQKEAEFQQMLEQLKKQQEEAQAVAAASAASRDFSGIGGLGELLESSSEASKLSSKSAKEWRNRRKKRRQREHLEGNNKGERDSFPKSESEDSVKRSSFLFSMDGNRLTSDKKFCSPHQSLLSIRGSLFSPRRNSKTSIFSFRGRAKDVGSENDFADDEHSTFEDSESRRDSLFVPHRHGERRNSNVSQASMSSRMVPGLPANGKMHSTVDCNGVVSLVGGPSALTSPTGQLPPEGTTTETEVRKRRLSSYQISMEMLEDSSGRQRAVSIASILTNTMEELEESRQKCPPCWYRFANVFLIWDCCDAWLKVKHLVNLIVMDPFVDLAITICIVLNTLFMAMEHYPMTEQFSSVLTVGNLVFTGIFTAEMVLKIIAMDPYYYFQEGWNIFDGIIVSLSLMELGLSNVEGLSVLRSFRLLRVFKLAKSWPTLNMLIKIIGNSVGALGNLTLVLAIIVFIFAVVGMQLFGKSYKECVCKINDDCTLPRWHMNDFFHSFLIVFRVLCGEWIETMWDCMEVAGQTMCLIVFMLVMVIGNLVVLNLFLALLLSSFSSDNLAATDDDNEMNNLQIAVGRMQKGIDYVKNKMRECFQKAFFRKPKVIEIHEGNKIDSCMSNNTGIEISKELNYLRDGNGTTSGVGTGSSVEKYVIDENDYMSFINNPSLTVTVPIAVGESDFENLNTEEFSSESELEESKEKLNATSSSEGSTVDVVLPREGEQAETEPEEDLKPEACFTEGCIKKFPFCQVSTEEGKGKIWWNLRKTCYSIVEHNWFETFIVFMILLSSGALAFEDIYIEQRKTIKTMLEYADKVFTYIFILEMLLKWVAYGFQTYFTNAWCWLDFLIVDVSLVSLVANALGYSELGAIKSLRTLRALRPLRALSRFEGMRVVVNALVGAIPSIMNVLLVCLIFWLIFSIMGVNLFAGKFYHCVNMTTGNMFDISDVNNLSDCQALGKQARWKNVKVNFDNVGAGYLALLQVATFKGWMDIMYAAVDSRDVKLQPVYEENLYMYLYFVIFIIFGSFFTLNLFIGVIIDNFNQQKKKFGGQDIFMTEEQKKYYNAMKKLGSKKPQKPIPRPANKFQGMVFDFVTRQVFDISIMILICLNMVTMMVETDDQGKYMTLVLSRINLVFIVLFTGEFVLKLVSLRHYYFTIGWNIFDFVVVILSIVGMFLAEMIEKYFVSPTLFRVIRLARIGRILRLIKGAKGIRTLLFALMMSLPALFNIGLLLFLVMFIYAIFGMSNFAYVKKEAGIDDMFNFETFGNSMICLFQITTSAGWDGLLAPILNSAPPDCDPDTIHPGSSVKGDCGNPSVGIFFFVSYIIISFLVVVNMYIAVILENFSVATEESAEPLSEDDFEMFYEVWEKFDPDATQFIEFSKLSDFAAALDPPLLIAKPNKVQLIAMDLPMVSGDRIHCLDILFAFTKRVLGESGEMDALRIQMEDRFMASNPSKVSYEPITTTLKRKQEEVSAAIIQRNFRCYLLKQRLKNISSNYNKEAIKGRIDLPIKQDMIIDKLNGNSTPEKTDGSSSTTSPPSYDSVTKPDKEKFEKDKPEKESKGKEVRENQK
Method: (§1) Electrophysiology Assay for Navs
(§2) Whole cell patch clamp recording is used to assess the efficacy or selectivity of Na channel blocker on human Nav1.3 (hSCN3A) expressing HEK293 cells or human Nav1.7 (hSCN9A) expressing CHO cells. Human Nav1.3 expressing HEK293 cells are grown in growth media which comprised: DMEM, 10% heat-inactivated FBS (Hyclone Laboratories Inc), 100 microgram/mL Penicillin/100 U/mL Streptomycin, 150 microgram/mL Zeocin, 3 microgram/mL Geneticin. Human Nav1.7 expressing CHO cells are grown in growth media which comprised: HAM/F-12, 9% heat-inactivated FBS (Hyclone Laboratories Inc), 100 microgram/mL Penicillin/100 U/mL Streptomycin, 100 microgram/mL Hygromycin.
(§3) Na channel expressing cells are dissociated by 0.05% Trypsine-EDTA, and then seeded on cover glass for 24-48 hr. […]
(§4) The normalized steady-state inactivation curve is constructed using 2 sec (for vehicle) or 60 sec (for drugs) conditioning pulse to different potentials followed immediately by the test pulse to −10 mV. […] The affinity of drugs to resting state of Na channels (Kresting or Kr) is assessed by 30 msec test pulse from a negative holding potential of −120 or −130 mV, where virtually all channels are in the resting state. Kr value is calculated by a conventional 1:1 binding model: Kresting(Kr)={[drug]Imax,drug/(Imax,control−Imax,drug)} […]

human Nav1.7 (hSCN9A) = molecular target: T2, human Nav1.7 (hSCN9A) (Homo sapiens, UniProt Q15858); test: Electrophysiology assay for Navs, whole cell patch clamp, Nav1.7; settings: Kinact, dissociation constant for the inactivated state, read-out: activities (Ki) against Nav1.7
T2 construct: expressed in transfected cells; host or cells: CHO
T2 sequence (Q15858 whole entry): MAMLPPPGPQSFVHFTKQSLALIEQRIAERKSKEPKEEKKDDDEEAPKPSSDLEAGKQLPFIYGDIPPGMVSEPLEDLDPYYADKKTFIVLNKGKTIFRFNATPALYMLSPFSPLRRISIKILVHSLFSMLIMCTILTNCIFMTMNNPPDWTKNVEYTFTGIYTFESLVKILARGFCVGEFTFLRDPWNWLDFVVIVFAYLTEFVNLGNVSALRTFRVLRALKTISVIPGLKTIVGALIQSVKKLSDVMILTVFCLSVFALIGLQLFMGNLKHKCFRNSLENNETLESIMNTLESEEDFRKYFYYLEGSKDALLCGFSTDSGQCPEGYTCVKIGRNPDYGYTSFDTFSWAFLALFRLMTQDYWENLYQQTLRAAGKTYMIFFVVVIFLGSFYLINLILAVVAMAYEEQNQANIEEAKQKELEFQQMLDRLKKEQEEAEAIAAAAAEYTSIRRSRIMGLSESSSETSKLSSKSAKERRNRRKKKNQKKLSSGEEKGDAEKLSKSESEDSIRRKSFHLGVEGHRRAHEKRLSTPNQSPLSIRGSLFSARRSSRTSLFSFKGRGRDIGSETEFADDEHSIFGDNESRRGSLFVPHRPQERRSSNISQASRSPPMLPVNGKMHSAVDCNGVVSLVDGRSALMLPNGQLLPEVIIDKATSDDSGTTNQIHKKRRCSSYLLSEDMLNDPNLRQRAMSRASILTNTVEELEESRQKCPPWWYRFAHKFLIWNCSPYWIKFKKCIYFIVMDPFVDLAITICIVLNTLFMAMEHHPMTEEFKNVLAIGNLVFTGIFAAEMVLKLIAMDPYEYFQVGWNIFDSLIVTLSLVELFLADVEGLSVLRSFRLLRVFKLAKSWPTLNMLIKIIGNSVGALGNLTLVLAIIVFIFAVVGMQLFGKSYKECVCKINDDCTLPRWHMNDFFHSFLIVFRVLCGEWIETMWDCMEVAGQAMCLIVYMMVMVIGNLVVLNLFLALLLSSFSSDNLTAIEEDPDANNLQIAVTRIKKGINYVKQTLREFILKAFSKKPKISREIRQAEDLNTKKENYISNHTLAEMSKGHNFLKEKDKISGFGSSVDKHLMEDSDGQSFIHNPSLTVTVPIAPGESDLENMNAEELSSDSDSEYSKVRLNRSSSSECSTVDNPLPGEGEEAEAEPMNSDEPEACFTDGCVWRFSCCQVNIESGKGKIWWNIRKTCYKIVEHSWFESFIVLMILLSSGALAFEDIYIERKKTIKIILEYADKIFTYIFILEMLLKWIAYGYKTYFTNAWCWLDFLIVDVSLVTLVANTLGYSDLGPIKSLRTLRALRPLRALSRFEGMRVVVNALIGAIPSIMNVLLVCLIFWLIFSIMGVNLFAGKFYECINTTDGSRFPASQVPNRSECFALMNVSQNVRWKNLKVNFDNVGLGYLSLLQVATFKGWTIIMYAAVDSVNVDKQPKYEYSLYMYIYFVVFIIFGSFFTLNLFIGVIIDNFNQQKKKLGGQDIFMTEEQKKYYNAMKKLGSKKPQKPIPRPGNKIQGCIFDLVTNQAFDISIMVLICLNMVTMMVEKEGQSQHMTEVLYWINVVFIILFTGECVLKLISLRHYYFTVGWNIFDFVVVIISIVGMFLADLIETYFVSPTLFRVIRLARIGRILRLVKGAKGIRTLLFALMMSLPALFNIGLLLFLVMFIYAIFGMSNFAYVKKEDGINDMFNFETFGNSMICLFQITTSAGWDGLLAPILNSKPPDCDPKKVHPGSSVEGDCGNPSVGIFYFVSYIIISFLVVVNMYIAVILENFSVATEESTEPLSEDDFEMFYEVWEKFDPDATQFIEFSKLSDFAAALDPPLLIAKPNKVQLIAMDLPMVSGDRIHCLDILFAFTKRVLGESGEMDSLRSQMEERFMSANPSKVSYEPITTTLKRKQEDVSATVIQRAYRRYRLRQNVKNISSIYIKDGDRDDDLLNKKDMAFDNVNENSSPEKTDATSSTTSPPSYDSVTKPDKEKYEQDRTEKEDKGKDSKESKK
Method: as §1, §2, §3, §4

human Nav1.7 channels = molecular target: T3, human Nav1.7 channels (Homo sapiens, UniProt Q15858); test: FRET assay, human Nav1.7 (EFS on FDSS); settings: CHO cells expressing human Nav1.7, read-out: IC50 against Nav1.7
T3 construct: expressed in transfected cells; host or cells: CHO
T3 sequence (Q15858 whole entry): as above
Method in brief: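 CHO cells stably expressing the channel, loaded with CC2-DMPE (10 µM) then DiSBAC2(3) (15 µM) plus VABSC-1, in HEPES-buffered saline pH 7.4 at room temperature. Electrical field stimulation on FDSS; FRET ratio at 440 nm fitted for IC50.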

Structure (SMILES): CC(=O)Nc1cc(C(=O)NC(C)c2ccc(OCC(F)(F)F)nc2)ccn1 (single isomer, unassigned; (-)) [Example 1, (−)-2-acetamido-N-(1-(6-(2,2,2-trifluoroethoxy)pyridin-3-yl)ethyl)isonicotinamide]
- Ki (human Nav1.3 (hSCN3A)): 1500 nM
- Ki (human Nav1.7 (hSCN9A)): 1200 nM
- IC50 (human Nav1.7 channels): < 1000 nM and 940 nM
